Experimental data published in ChEMBL document CHEMBL4130416, “Glycine-replaced derivatives of [Pro3,DLeu9]TL, a temporin L analogue: Evaluation of antimicrobial, cytotoxic and hemolytic activities” (Eur J Med Chem, 2017).
Values after ≈ are worked out from the molar mass of the structure shown. Active and inactive are the calls of the source. The rule behind the calls is not given here. Where a SMILES comes first, the peptide text is derived from it. [ ]: non-standard residue; d: D form.

What was measured:
[1] = system: Candida albicans; test: Antimicrobial activity against Candida albicans ATCC 10231 after 18 to 20 hrs by microbroth dilution method; format: functional
[2] = Metabolic stability in 90% human serum assessed as parent compound remaining at […] after 120 mins by RP-UHPLC analysis; format: ADME, cell-free; settings: read-out: Stability
[3] = system: Staphylococcus aureus; test: Antimicrobial activity against beta-lactamase resistant Staphylococcus aureus after 18 to 20 hrs by microbroth dilution method; format: functional
[4] = system: Priestia megaterium; test: Antimicrobial activity against Bacillus megaterium Bm11 after 18 to 20 hrs by microbroth dilution method; format: functional
[5] = system: Candida albicans; test: Antimicrobial activity against Candida albicans clinical isolate 1 after 18 to 20 hrs by microbroth dilution method; format: functional
[6] = Hemolytic activity against human erythrocytes at 6.25 uM after 40 mins relative to control; format: ADME, cell-based, Erythrocyte; settings: read-out: Activity
[7] = system: Pseudomonas aeruginosa; test: Antimicrobial activity against Pseudomonas aeruginosa ATCC 27853 after 18 to 20 hrs by microbroth dilution method; format: functional
[8] = system: Pichia kudriavzevii; test: Antimicrobial activity against Candida krusei ATCC 6258 after 18 to 20 hrs by microbroth dilution method; format: functional
[9] = system: HaCaT; test: Cytotoxicity against human HaCaT cells at 12.5 uM after 24 hrs by MTT assay relative to control; format: cell-based
[10] = system: Klebsiella pneumoniae; test: Antimicrobial activity against multisensitive Klebsiella pneumoniae after 18 to 20 hrs by microbroth dilution method; format: functional
[11] = Metabolic stability in 90% human serum assessed as parent compound remaining at 0.2 mM after 45 mins by RP-UHPLC analysis; format: ADME, cell-free; settings: read-out: Stability
[12] = system: HaCaT; test: Cytotoxicity against human HaCaT cells at 25 uM after 24 hrs by MTT assay relative to control; format: cell-based
[13] = system: HaCaT; test: Cytotoxicity against human HaCaT cells at 50 uM after 24 hrs by MTT assay relative to control; format: cell-based
[14] = Hemolytic activity against human erythrocytes at 12.5 uM after 40 mins relative to control; format: ADME, cell-based, Erythrocyte; settings: read-out: Activity
[15] = system: Candida albicans; test: Antimicrobial activity against Candida albicans clinical isolate 2 after 18 to 20 hrs by microbroth dilution method; format: functional
[16] = system: Staphylococcus aureus; test: Antimicrobial activity against multisensitive Staphylococcus aureus after 18 to 20 hrs by microbroth dilution method; format: functional
[17] = system: Staphylococcus aureus; test: Antimicrobial activity against methicillin resistant Staphylococcus aureus clinical isolate 1 after 18 to 20 hrs by microbroth dilution method; format: functional
[18] = system: Staphylococcus aureus; test: Antimicrobial activity against macrolid resistant Staphylococcus aureus after 18 to 20 hrs by microbroth dilution method; format: functional
[19] = system: Staphylococcus epidermidis; test: Antimicrobial activity against Staphylococcus epidermidis ATCC 12228 after 18 to 20 hrs by microbroth dilution method; format: functional
[20] = system: Escherichia coli; test: Antimicrobial activity against Escherichia coli D21 after 18 to 20 hrs by microbroth dilution method; format: functional
[21] = system: Staphylococcus aureus; test: Antimicrobial activity against methicillin resistant Staphylococcus aureus clinical isolate 2 after 18 to 20 hrs by microbroth dilution method; format: functional
[22] = Hemolytic activity against human erythrocytes at 50 uM after 40 mins relative to control; format: ADME, cell-based, Erythrocyte; settings: read-out: Activity
[23] = system: Pseudomonas aeruginosa; test: Antimicrobial activity against multisensitive Pseudomonas aeruginosa after 18 to 20 hrs by microbroth dilution method; format: functional
[24] = system: Acinetobacter baumannii; test: Antimicrobial activity against Acinetobacter baumannii ATCC 19606 after 18 to 20 hrs by microbroth dilution method; format: functional; settings: ATCC 19606 = CIP 70.34 = JCM 6841
[25] = system: Staphylococcus aureus; test: Antimicrobial activity against Staphylococcus aureus Cowan I after 18 to 20 hrs by microbroth dilution method; format: functional
[26] = Hemolytic activity against human erythrocytes at 25 uM after 40 mins relative to control; format: ADME, cell-based, Erythrocyte; settings: read-out: Activity
[27] = system: Escherichia coli; test: Antimicrobial activity against multisensitive Escherichia coli clinical isolate 1 after 18 to 20 hrs by microbroth dilution method; format: functional
[28] = system: HaCaT; test: Cytotoxicity against human HaCaT cells at 1.56 to 6.25 uM after 24 hrs by MTT assay; format: cell-based
[29] = system: Pseudomonas syringae; test: Antimicrobial activity against Pseudomonas syringae pv tabaci NCPPB 1918 after 18 to 20 hrs by microbroth dilution method; format: functional, Pseudomonas amygdali pv. tabaci
[30] = system: Escherichia coli; test: Antimicrobial activity against multisensitive Escherichia coli clinical isolate 2 after 18 to 20 hrs by microbroth dilution method; format: functional
[31] = Hemolytic activity against human erythrocytes at 3.125 uM after 40 mins relative to control; format: ADME, cell-based, Erythrocyte; settings: read-out: Activity
[32] = system: Candida albicans; test: Antimicrobial activity against Candida albicans ATCC 10231 assessed as induction of membrane-perturbation at MIC measured every minute for 10 mins by SYTOX green fluorescence dye influx assay; format: functional, organism-based
[33] = system: Staphylococcus epidermidis; test: Antimicrobial activity against Staphylococcus epidermidis ATCC 12228 assessed as membrane-perturbation measured every minute for 120 mins by SYTOX green fluorescence dye influx assay; format: functional, organism-based
[34] = system: Acinetobacter baumannii; test: Antimicrobial activity against Acinetobacter baumannii ATCC 19606 assessed as induction of membrane-perturbation at MIC measured every minute for 120 mins by SYTOX green fluorescence dye influx assay; format: functional, organism-based; settings: ATCC 19606 = CIP 70.34 = JCM 6841
[35] = system: HaCaT; test: Cytotoxicity against human HaCaT cells at 6.25 uM after 24 hrs by MTT assay relative to control; format: cell-based

Compound	MIC [1] [µM]	remaining at 2 h [2] [%]	MIC [3] [µM]	MIC [4] [µM]	MIC [5] [µM]	hemolysis at 40 min, 6.25 µM [6] [%]	MIC [7] [µM]	MIC [8] [µM]	Activity [9] [%]	MIC [10] [µM]	Activity [12] [%]	Activity [13] [%]	hemolysis at 40 min, 12.5 µM [14] [%]	MIC [15] [µM]	MIC [16] [µM]	MIC [19] [µM]	MIC [20] [µM]	MIC [24] [µM]	MIC [25] [µM]	MIC [29] [µM]	other results
CC[C@H](C)[C@H](NC(=O)[C@H](CCCNC(=N)N)NC(=O)CNC(=O)[C@@H](CC(C)C)NC(=O)[C@H](Cc1ccccc1)NC(=O)[C@H](CCCCN)NC(=O)[C@H](CO)NC(=O)[C@H](Cc1ccccc1)NC(=O)[C@H](Cc1c[nH]c2ccccc12)NC(=O)[C@@H]1CCCN1C(=O)[C@@H](NC(=O)[C@@H](N)Cc1ccccc1)C(C)C)C(=O)N[C@@H](CC(C)C)C(N)=O (H-FVPWFSKF[dL]GRIL-NH2)	3.12 (≈ 5.03 µg/mL)	20	12.5 (≈ 20.1 µg/mL)	3.12 (≈ 5.03 µg/mL)	25 (≈ 40.2 µg/mL)	3	50 (≈ 80.4 µg/mL)	3.12 (≈ 5.03 µg/mL)	20.63	> 50	57.52	91.58	6	25 (≈ 40.2 µg/mL)	12.5 (≈ 20.1 µg/mL)	6.25 (≈ 10.1 µg/mL)	12.5 (≈ 20.1 µg/mL)	12.5 (≈ 20.1 µg/mL)	12.5 (≈ 20.1 µg/mL)	12.5 (≈ 20.1 µg/mL)	remaining at 0.75 h, 200 µM [11]: 45%; MIC [17]: 12.5 µM (≈ 20.1 µg/mL); MIC [18]: 12.5 µM (≈ 20.1 µg/mL); MIC [21]: 12.5 µM (≈ 20.1 µg/mL); hemolysis at 40 min, 50 µM [22]: 21%; MIC [23]: > 50 µM; hemolysis at 40 min, 25 µM [26]: 7%; MIC [27]: 50 µM (≈ 80.4 µg/mL); Activity [28]: Non-Toxic; MIC [30]: 50 µM (≈ 80.4 µg/mL); hemolysis at 40 min, 3.125 µM [31]: 1%
CC[C@H](C)[C@H](NC(=O)[C@H](CCCNC(=N)N)NC(=O)[C@H](Cc1c[nH]c2ccccc12)NC(=O)[C@@H](CC(C)C)NC(=O)[C@H](Cc1ccccc1)NC(=O)[C@H](CCCCN)NC(=O)[C@H](CO)NC(=O)[C@H](Cc1ccccc1)NC(=O)[C@H](Cc1c[nH]c2ccccc12)NC(=O)[C@@H]1CCCN1C(=O)[C@@H](NC(=O)[C@@H](N)Cc1ccccc1)C(C)C)C(=O)N[C@@H](CC(C)C)C(N)=O (H-FVPWFSKF[dL]WRIL-NH2)	3.12 (≈ 5.43 µg/mL)	50	6.25 (≈ 10.9 µg/mL)	1.56 (≈ 2.71 µg/mL)	25 (≈ 43.5 µg/mL)	4	> 50	3.12 (≈ 5.43 µg/mL)	0	> 50	32.1	89.3	7	25 (≈ 43.5 µg/mL)	6.25 (≈ 10.9 µg/mL)	1.56 (≈ 2.71 µg/mL)	25 (≈ 43.5 µg/mL)	3.12 (≈ 5.43 µg/mL)	3.12 (≈ 5.43 µg/mL)	1.56 (≈ 2.71 µg/mL)	Activity [32]: Active; Activity [33]: Active; Activity [34]: Active; remaining at 0.75 h, 200 µM [11]: 80%; MIC [17]: 6.25 µM (≈ 10.9 µg/mL); MIC [18]: 6.25 µM (≈ 10.9 µg/mL); MIC [21]: 6.25 µM (≈ 10.9 µg/mL); hemolysis at 40 min, 50 µM [22]: 37%; MIC [23]: > 50 µM; hemolysis at 40 min, 25 µM [26]: 20%; MIC [27]: 50 µM (≈ 86.9 µg/mL); Activity [28]: Non-Toxic; MIC [30]: 50 µM (≈ 86.9 µg/mL); hemolysis at 40 min, 3.125 µM [31]: 2%
CC[C@H](C)[C@H](NC(=O)[C@H](CCCNC(=N)N)NC(=O)[C@@H](Cc1c[nH]c2ccccc12)NC(=O)[C@@H](CC(C)C)NC(=O)[C@H](Cc1ccccc1)NC(=O)[C@H](CCCCN)NC(=O)[C@H](CO)NC(=O)[C@H](Cc1ccccc1)NC(=O)[C@H](Cc1c[nH]c2ccccc12)NC(=O)[C@@H]1CCCN1C(=O)[C@@H](NC(=O)[C@@H](N)Cc1ccccc1)C(C)C)C(=O)N[C@@H](CC(C)C)C(N)=O (H-FVPWFSKF[dL][dW]RIL-NH2)	3.12 (≈ 5.43 µg/mL)	–	–	3.12 (≈ 5.43 µg/mL)	–	–	50 (≈ 86.9 µg/mL)	3.12 (≈ 5.43 µg/mL)	19.21	–	35.34	96.77	–	–	–	1.56 (≈ 2.71 µg/mL)	25 (≈ 43.5 µg/mL)	3.12 (≈ 5.43 µg/mL)	3.12 (≈ 5.43 µg/mL)	3.12 (≈ 5.43 µg/mL)	Activity [35]: 15%
CC[C@H](C)C(NC(=O)[C@H](CCCNC(=N)N)NC(=O)[C@@H](CCCCN)NC(=O)[C@@H](CC(C)C)NC(=O)[C@H](Cc1ccccc1)NC(=O)[C@H](CCCCN)NC(=O)[C@H](CO)NC(=O)[C@H](Cc1ccccc1)NC(=O)[C@H](Cc1c[nH]c2ccccc12)NC(=O)[C@@H]1CCCN1C(=O)[C@@H](NC(=O)[C@@H](N)Cc1ccccc1)C(C)C)C(=O)N[C@@H](CC(C)C)C(N)=O (single isomer, unassigned)	1.56 (≈ 2.62 µg/mL)	40	25 (≈ 42 µg/mL)	3.12 (≈ 5.25 µg/mL)	12.5 (≈ 21 µg/mL)	1	12.5 (≈ 21 µg/mL)	1.56 (≈ 2.62 µg/mL)	0	50 (≈ 84 µg/mL)	28.22	87.9	5	12.5 (≈ 21 µg/mL)	12.5 (≈ 21 µg/mL)	3.12 (≈ 5.25 µg/mL)	12.5 (≈ 21 µg/mL)	6.25 (≈ 10.5 µg/mL)	12.5 (≈ 21 µg/mL)	12.5 (≈ 21 µg/mL)	Activity [32]: Active; Activity [33]: Active; Activity [34]: Active; MIC [17]: 25 µM (≈ 42 µg/mL); MIC [18]: 25 µM (≈ 42 µg/mL); MIC [21]: 12.5 µM (≈ 21 µg/mL); hemolysis at 40 min, 50 µM [22]: 7%; MIC [23]: > 50 µM; hemolysis at 40 min, 25 µM [26]: 5%; MIC [27]: 25 µM (≈ 42 µg/mL); Activity [28]: Non-Toxic; MIC [30]: 25 µM (≈ 42 µg/mL); hemolysis at 40 min, 3.125 µM [31]: 0%
CCCC[C@@H](NC(=O)[C@@H](CC(C)C)NC(=O)[C@H](Cc1ccccc1)NC(=O)[C@H](CCCCN)NC(=O)[C@H](CO)NC(=O)[C@H](Cc1ccccc1)NC(=O)[C@H](Cc1c[nH]c2ccccc12)NC(=O)[C@@H]1CCCN1C(=O)[C@@H](NC(=O)[C@@H](N)Cc1ccccc1)C(C)C)C(=O)N[C@@H](CCCNC(=N)N)C(=O)NC(C(=O)N[C@@H](CC(C)C)C(N)=O)[C@@H](C)CC (single isomer, unassigned)	3.12 (≈ 5.2 µg/mL)	–	–	1.56 (≈ 2.6 µg/mL)	–	–	50 (≈ 83.3 µg/mL)	1.56 (≈ 2.6 µg/mL)	39.96	–	72.81	96.64	–	–	–	3.12 (≈ 5.2 µg/mL)	25 (≈ 41.6 µg/mL)	6.25 (≈ 10.4 µg/mL)	3.12 (≈ 5.2 µg/mL)	3.12 (≈ 5.2 µg/mL)	Activity [35]: 15%
